Values after ≈ are worked out from the molar mass of the structure shown.
Assays:
Assay in all cases: MIC, CLSI broth microdilution, Test Example 2
Format in all cases: cell-based
[1] = test system: A. baumannii SR01331; settings: Acinetobacter baumannii, SR01331; PER-1, OXA-23.51 ESBL- & OXA-type carbapenemase producing strain; cation-adjusted Iso-Sensitest broth containing human Apo-transferrin; 5×10^5 cfu/mL; read-out: Minimum Inhibitory Concentration (MIC) A. baumannii SR01331
Experimental: (§1) Measurement of Minimum Inhibitory Concentration (MIC: μg/mL) was conducted according to CLSI (Clinical and Laboratory Standards Institute) method, and the amount of bacteria for inoculation was 5×10^5 cfu/mL, and cation-adjusted Iso-Sensitest broth containing human Apo-transferrin was used as a test medium, and the experiment was conducted using broth microdilution method.

[2] = test system: E. cloacae NCTC13464; settings: Enterobacter cloacae, NCTC13464; CTX-M group 9 ESBL producing strain; cation-adjusted Iso-Sensitest broth containing human Apo-transferrin; 5×10^5 cfu/mL; read-out: Minimum Inhibitory Concentration (MIC) E. cloacae NCTC 13464
Experimental: as §1

[3] = test system: E. coli ATCCBAA-196; settings: Escherichia coli, ATCCBAA196; TEM-10 ESBL producing strain; cation-adjusted Iso-Sensitest broth containing human Apo-transferrin; 5×10^5 cfu/mL; read-out: Minimum Inhibitory Concentration (MIC) E. coli ATCC BAA-196
Experimental: as §1

[4] = test system: E. coli SR01337; settings: Escherichia coli, SR01337; TEM-1 ESBL producing strain; cation-adjusted Iso-Sensitest broth containing human Apo-transferrin; 5×10^5 cfu/mL; read-out: Minimum Inhibitory Concentration (MIC) E. coli SR01337
Experimental: as §1

[5] = test system: K. pneumoniae ATCC700603; settings: Klebsiella pneumoniae, ATCC700603; SHV18 ESBL producing strain; cation-adjusted Iso-Sensitest broth containing human Apo-transferrin; 5×10^5 cfu/mL; read-out: Minimum Inhibitory Concentration (MIC) K. pneumoniae ATCC 700603
Experimental: as §1

[6] = test system: P. aeruginosa SR01332; settings: Pseudomonas aeruginosa, SR01332; VIM-11 MBL producing strain (carbapenem resistance strain); cation-adjusted Iso-Sensitest broth containing human Apo-transferrin; 5×10^5 cfu/mL; read-out: Minimum Inhibitory Concentration (MIC) P. aeruginosa SR01332
Experimental: as §1

[7] = test system: P. aeruginosa SR01335; settings: Pseudomonas aeruginosa, SR01335; VIM-1 like MBL producing strain (carbapenem resistance strain); cation-adjusted Iso-Sensitest broth containing human Apo-transferrin; 5×10^5 cfu/mL; read-out: Minimum Inhibitory Concentration (MIC) P. aeruginosa SR01335
Experimental: as §1

[8] = test system: E. coli ATCCBAA-200; settings: Escherichia coli, ATCCBAA200; SHV-4 ESBL producing strain; cation-adjusted Iso-Sensitest broth containing human Apo-transferrin; 5×10^5 cfu/mL; read-out: Minimum Inhibitory Concentration (MIC) E. coli ATCC BAA-200
Experimental: as §1

Compound | MIC [1] | MIC [2] | MIC [3] | MIC [4] | MIC [5] | MIC [6] | MIC [7] | MIC [8]
CC(C)(O/N=C(\C(=O)N[C@@H]1C(=O)N2C(c3nnn[nH]3)=C(C[N+]3(C)CCN(C(=O)c4ccc(O)c(O)c4Cl)CC3)CS[C@H]12)c1nsc(N)n1)C(=O)O.[Na+] [Compound I-110] | 1 µg/mL | 0.25 µg/mL | 0.5 µg/mL | 0.063 µg/mL | 0.25 µg/mL | 8 µg/mL | 0.5 µg/mL | 
Nc1nc(/C(=N/O[C@@H](CC(=O)O)C(=O)[O-])C(=O)N[C@@H]2C(=O)N3C(c4nnn[nH]4)=C(C[N@+]45CCC[C@H]4CN(C(=O)c4ccc(O)c(O)c4Cl)CC5)CS[C@H]23)c(Cl)s1 [Compound I-97] | 0.25 µg/mL (≈ 0.293 µM) | 0.5 µg/mL (≈ 0.586 µM) | 0.125 µg/mL (≈ 0.147 µM) | 0.25 µg/mL (≈ 0.293 µM) | 0.5 µg/mL (≈ 0.586 µM) | 4 µg/mL (≈ 4.69 µM) | 1 µg/mL (≈ 1.17 µM) | 0.5 µg/mL (≈ 0.586 µM)
CC(C)(O/N=C(\C(=O)N[C@@H]1C(=O)N2C(c3nnn[nH]3)=C(C[N+]3(C)[C@@H]4CC[C@H]3C[C@@H](NC(=O)c3cc(O)c(O)c(F)c3)C4)CS[C@H]12)c1nsc(N)n1)C(=O)O.[Na+] (stereo partly shown) [Compound I-117] | 0.5 µg/mL | 0.5 µg/mL | 1 µg/mL | 0.063 µg/mL | 0.25 µg/mL | 4 µg/mL | 2 µg/mL | 1 µg/mL
Nc1nc(/C(=N/O[C@@H](CC(=O)[O-])C(=O)[O-])C(=O)N[C@@H]2C(=O)N3C(c4nnn[n-]4)=C(C[N+]4(CCNC(=O)c5cc(Cl)c(O)c(O)c5Cl)CCCC4)CS[C@H]23)cs1.[Na+].[Na+] [Compound I-60] | 0.5 µg/mL | 0.063 µg/mL | ≤ 0.031 µg/mL | ≤ 0.031 µg/mL | ≤ 0.031 µg/mL | 4 µg/mL | 1 µg/mL | 0.063 µg/mL
CC(C)(O/N=C(\C(=O)N[C@@H]1C(=O)N2C(c3nnn[nH]3)=C(C[N+]3(CCNC(=O)c4cc(O)c(O)c(Cl)c4)CCCC3)CS[C@H]12)c1nsc(N)n1)C(=O)[O-] [Compound I-119] | 0.5 µg/mL (≈ 0.643 µM) | 0.125 µg/mL (≈ 0.161 µM) | 0.5 µg/mL (≈ 0.643 µM) | ≤ 0.031 µg/mL | 0.25 µg/mL (≈ 0.322 µM) | 4 µg/mL (≈ 5.15 µM) | 2 µg/mL (≈ 2.57 µM) | 0.5 µg/mL (≈ 0.643 µM)
Cc1cc2cc(O)c(O)cc2c[n+]1CC1=C(c2nnn[nH]2)N2C(=O)[C@@H](NC(=O)/C(=N\OC(C)(C)C(=O)O)c3nsc(N)n3)[C@H]2SC1.[Na+] [Compound I-109] | 0.5 µg/mL | 0.125 µg/mL | 0.5 µg/mL | ≤ 0.031 µg/mL | 0.25 µg/mL | 0.5 µg/mL | 1 µg/mL | 1 µg/mL
C[N+]1(CC2=C(c3nnn[nH]3)N3C(=O)[C@@H](NC(=O)/C(=N\O[C@@H](CC(=O)O)C(=O)O)c4nc(N)sc4Cl)[C@H]3SC2)[C@@H]2CC[C@H]1C[C@@H](NC(=O)c1ccc(O)c(O)c1Cl)C2.[Na+].[Na+] (stereo partly shown) [Compound I-96] | 0.25 µg/mL | 0.5 µg/mL | 0.25 µg/mL | 0.125 µg/mL | 1 µg/mL | 4 µg/mL | 2 µg/mL | 1 µg/mL
CC(C)(O/N=C(\C(=O)N[C@@H]1C(=O)N2C(c3nnn[nH]3)=C(C[N+]3(CCNC(=O)c4cc(O)c(O)c(F)c4)CCCC3)CS[C@H]12)c1nc(N)sc1Cl)C(=O)[O-] [Compound I-104] | 0.5 µg/mL (≈ 0.63 µM) | 0.125 µg/mL (≈ 0.157 µM) | ≤ 0.031 µg/mL | ≤ 0.031 µg/mL | 0.125 µg/mL (≈ 0.157 µM) | 4 µg/mL (≈ 5.04 µM) | 2 µg/mL (≈ 2.52 µM) | 0.063 µg/mL (≈ 0.0793 µM)
CC(C)(O/N=C(\C(=O)N[C@@H]1C(=O)N2C(c3nnn[n-]3)=C(C[N@+]34CCC[C@H]3CN(C(=O)c3cc(O)c(O)c(Cl)c3)CC4)CS[C@H]12)c1nc(N)sc1Cl)C(=O)[O-].[Na+] [Compound I-29] | 0.5 µg/mL | 0.063 µg/mL | ≤ 0.031 µg/mL | ≤ 0.031 µg/mL | 0.125 µg/mL | 4 µg/mL | 2 µg/mL | 0.063 µg/mL
CC(C)(O/N=C(\C(=O)N[C@@H]1C(=O)N2C(c3nnn[n-]3)=C(C[n+]3ccc(CNC(=O)c4ccc(O)c(O)c4Cl)cc3)CS[C@H]12)c1nsc(N)n1)C(=O)[O-].[Na+] [Compound I-114] | 0.5 µg/mL | 0.25 µg/mL | 0.5 µg/mL | ≤ 0.031 µg/mL | 1 µg/mL | 1 µg/mL | 1 µg/mL | 1 µg/mL
CC(C)(O/N=C(\C(=O)N[C@@H]1C(=O)N2C(c3nnn[nH]3)=C(C[N@+]34CCC[C@H]3CN(C(=O)c3ccc(O)c(O)c3Cl)CC4)CS[C@H]12)c1nsc(N)n1)C(=O)[O-] [Compound I-112] | 1 µg/mL (≈ 1.27 µM) | 0.25 µg/mL (≈ 0.317 µM) | 0.5 µg/mL (≈ 0.634 µM) | 0.063 µg/mL (≈ 0.0798 µM) | 0.5 µg/mL (≈ 0.634 µM) | 4 µg/mL (≈ 5.07 µM) | 2 µg/mL (≈ 2.53 µM) | 
CC(C)(O/N=C(\C(=O)N[C@@H]1C(=O)N2C(c3nnn[n-]3)=C(C[N@+]34CCC[C@H]3CN(C(=O)c3cc(O)c(O)c(F)c3)CC4)CS[C@H]12)c1nc(N)sc1Cl)C(=O)[O-].[Na+] [Compound I-34] | 1 µg/mL | 0.5 µg/mL | 0.063 µg/mL | ≤ 0.031 µg/mL | 0.5 µg/mL | 4 µg/mL | 2 µg/mL | 0.25 µg/mL
CC(C)(O/N=C(\C(=O)N[C@@H]1C(=O)N2C(c3nnn[n-]3)=C(C[n+]3ccc(NC(=O)c4ccc(O)c(O)c4Cl)cc3)CS[C@H]12)c1nc(N)sc1Cl)C(=O)[O-].[Na+] [Compound I-36] | 0.5 µg/mL | 0.125 µg/mL | ≤ 0.031 µg/mL | ≤ 0.031 µg/mL | 0.5 µg/mL | 0.5 µg/mL | 4 µg/mL | 0.25 µg/mL
CC(C)(O/N=C(\C(=O)N[C@@H]1C(=O)N2C(c3nnn[nH]3)=C(C[N@+]34CCC[C@H]3CN(C(=O)c3cc(O)c(O)c(F)c3)CC4)CS[C@H]12)c1nsc(N)n1)C(=O)[O-] [Compound I-111] | 1 µg/mL (≈ 1.29 µM) | 0.25 µg/mL (≈ 0.323 µM) | 1 µg/mL (≈ 1.29 µM) | 0.125 µg/mL (≈ 0.162 µM) | 0.5 µg/mL (≈ 0.647 µM) | 2 µg/mL (≈ 2.59 µM) | 2 µg/mL (≈ 2.59 µM) | 

Reference: patent US9334289B2, “Cephem compound having catechol or pseudo-catechol structure” (SHIONOGI & CO., LTD., priority 2011, dated 2016)
